“Also recorded” adds a separate entry of the source. Where two headings read alike, the source gives them in different places.
Target: T1, hASIC1a (Homo sapiens, UniProt P78348)
T1 sequence (P78348 1-528): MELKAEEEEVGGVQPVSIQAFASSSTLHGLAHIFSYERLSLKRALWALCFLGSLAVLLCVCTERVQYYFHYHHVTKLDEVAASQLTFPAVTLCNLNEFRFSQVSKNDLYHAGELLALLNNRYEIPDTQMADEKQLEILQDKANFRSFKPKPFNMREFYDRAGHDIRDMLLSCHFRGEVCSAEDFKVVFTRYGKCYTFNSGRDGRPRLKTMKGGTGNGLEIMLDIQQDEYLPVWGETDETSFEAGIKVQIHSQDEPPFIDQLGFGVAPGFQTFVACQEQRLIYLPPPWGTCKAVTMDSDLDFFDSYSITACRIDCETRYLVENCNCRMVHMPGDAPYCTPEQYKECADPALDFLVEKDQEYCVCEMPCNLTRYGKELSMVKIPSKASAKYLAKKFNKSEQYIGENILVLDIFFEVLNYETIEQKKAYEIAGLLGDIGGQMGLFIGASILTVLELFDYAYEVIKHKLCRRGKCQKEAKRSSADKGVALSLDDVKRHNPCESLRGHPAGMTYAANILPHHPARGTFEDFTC
Experiment: Two-electrode voltage clamp in Xenopus laevis oocytes expressing hASIC1a (OpusExpress)
Format: cell-based
Parameters: expressed in transfected cells; host or cells: Xenopus laevis oocytes, nuclear microinjection of cDNA (e.g. in pCDNA3)
Conditions: for effect on hASIC1a current evoked by pH 6.5 in oocytes (FIGS. 4A-4D): two-electrode voltage clamp, dose-response
Experimental: Two-electrode voltage clamp electrophysiological assays in Xenopus laevis oocytes expressing gated ion channels are performed as follows:
Oocytes are surgically removed from adult Xenopus laevis and treated for 2 h at room temperature with 1 mg/ml type I collagenase (Sigma) in Barth's solution under mild agitation. Selected oocytes at stage IV-V are defolliculated manually before nuclear microinjection of 2.5-5 ng of a suitable expression vector, such as pCDNA3, comprising the nucleotide sequence encoding a gated ion channel subunit protein. In such an experiment, the oocytes express homomultimeric proton-gated ion channels on their surface. In an alternate experiment, one, two, three or more vectors comprising the coding sequences for distinct gated ion channel subunits are co-injected in the oocyte nuclei. In the latter case, oocytes express heteromultimeric proton-gated ion channels. […] Once impaled with the microelectrodes, oocytes are continuously superfused at 10-12 ml/min with a modified Ringer's solution containing 97 mM NaCl, 2 mM KCl, 1.8 mM CaCl2, and 10 mM HEPES brought to pH 7.4 with NaOH (Control Ringer). Test Ringer solution is prepared by replacing HEPES with MES and adjusting the pH to the desired acidic value. Compounds of the present invention are prepared in both the Control and Test Ringer solutions and applied to oocytes at room temperature through a computer-controlled switching valve system. […] Similarly, recordings can also be acquired in an automated multichannel oocytes system as the OpusExpress™ (Molecular Devices, Sunnyvale, Calif., USA).
Recordings were acquired from oocytes expressing homomeric hASIC1a using a two-electrode voltage-clamp configuration procedure as described herein.

[1] = OpusExpress (OX), Tables A-F, h1a printed in some cells only, read-out: Biological Data (IC50 uM) h1a (OX)
[2] = OpusExpress (OX), Tables A-F, h1a printed in some cells only
[3] = Table H, read-out: IC50 (μM) Opus Express (h1a)

Biological Data (IC50 uM) h1a (OX) [2]	SMILES	further results
Not Active	CCc1nc(NC2CCN(Cc3ccccc3)CC2)c2ccccc2n1 [Compound 33, (1-benzyl-piperidin-4-yl)-(2-ethyl-quinazolin-4-yl)-amine]	–
Not Active (OX)	COc1ccc(-c2cc(C(=O)N3CCN(CCc4ccccc4)CC3)c3ccccc3n2)cc1OC [Compound 42, [2-(3,4-dimethoxy-phenyl)-quinolin-4-yl]-(4-phenethyl-piperazin-1-yl)-methanone]	–
Not Active (OX)	COc1ccc(-c2cc(C(=O)N3CCN(Cc4ccc5c(c4)OCO5)CC3)c3cc(Cl)ccc3n2)c(O)c1 [Compound 45, (4-benzo[1,3]dioxol-5-ylmethyl-piperazin-1-yl)-[6-chloro-2-(2-hydroxy-4-methoxy-phenyl)-quinolin-4-yl]-methanone]	–
Not Active (OX)	Cc1cc(N2CCN(C(=O)OC(C)(C)C)CC2)c2ccccc2n1 [Compound 59, 4-(2-methyl-quinolin-4-yl)-piperazine-1-carboxylic acid tert-butyl ester]	–
Not Active (OX)	Cc1cc(N2CCN(c3ccccc3C#N)CC2)c2ccccc2n1 [Compound 60, 2-[4-(2-methyl-quinolin-4-yl)-piperazin-1-yl]-benzonitrile]	–
Not Active (OX)	Cc1cc(N2CCN(c3ccc([N+](=O)[O-])cc3)CC2)c2ccccc2n1 [Compound 61, 2-methyl-4-[4-(4-nitro-phenyl)-piperazin-1-yl]-quinoline]	–
Not Active (OX)	O=C(O)c1ccc(Nc2ncnc3ccccc23)cc1 [Compound 102, 4-(quinazolin-4-ylamino)-benzoic acid]	–
Not Active (OX)	O=C(O)c1ccc(Nc2ncnc3ccc([N+](=O)[O-])cc23)cc1 [Compound 103, 4-(6-nitro-quinazolin-4-ylamino)-benzoic acid]	–
Not Active (OX)	Cc1ccc(-c2nc(Nc3ccccc3)c3ccccc3n2)cc1 [Compound 104, Phenyl-(2-p-tolyl-quinazolin-4-yl)-amine]	–
Not Active (OX)	Cc1ccc(-c2nc(NCCCC(=O)O)c3ccccc3n2)cc1 [Compound 105, 4-(2-p-tolyl-quinazolin-4-ylamino)-butyric acid]	–
Not Active (OX)	Cc1ccc(-c2nc(N(C)c3ccc(C(=O)O)cc3)c3ccccc3n2)cc1 [Compound 106, 4-[methyl-(2-p-tolyl-quinazolin-4-yl)-amino]-benzoic acid]	–
Not Active (OX)	Cc1ccc(-c2nc(NC3CCN(Cc4ccccc4)CC3)c3ccc(Cl)cc3n2)cc1 [Compound 108, (1-benzyl-piperidin-4-yl)-(7-chloro-2-p-tolyl-quinazolin-4-yl)-amine]	–
Not Active (OX)	Cc1ccc(-c2nc(N3CCCCC3)c3ccc(Cl)cc3n2)cc1 [Compound 110, 7-chloro-4-piperidin-1-yl-2-p-tolyl-quinazoline]	–
Not Active (OX)	CCc1nc(NCCOC)c2ccccc2n1 [Compound 111, (2-ethyl-quinazolin-4-yl)-(2-methoxy-ethyl)-amine]	–

Continued, compound first:

SMILES	Biological Data (IC50 uM) h1a (OX) [2]	further results
Cc1cc(OCCCN(C)Cc2ccccc2)c2ccccc2n1 [Compound 1, benzyl-methyl-[3-(2-methyl-quinolin-4-yloxy)-propyl]-amine]	–	IC50 [1]: > 30 µM
Cc1cc(OC2CCN(CCc3ccccc3)CC2)c2ccccc2n1 [Compound 2, 2-methyl-4-(1-phenethyl-piperidin-4-yloxy)-quinoline]	–	IC50 [1]: > 30 µM
c1ccc(CN2CCC(Oc3cc(-c4ccccc4)nc4ccccc34)CC2)cc1 [Compound 3, 4-(1-benzyl-piperidin-4-yloxy)-2-phenyl-quinoline]	Not Active (OX)	–
Cc1cc(OC2CCN(C)CC2)c2ccccc2n1 [Compound 4, 2-methyl-4-(1-methyl-piperidin-4-yloxy)-quinoline]	–	IC50 [1]: > 30 µM
Cc1cc(OC2CCN(Cc3ccc(Cl)cc3)CC2)c2ccccc2n1 [Compound 5, 4[1-(4-chloro-benzyl)-piperidin-4-yloxy]-2-methyl-quinoline]	–	approx. % at 30 uM (OX) (30 uM, OpusExpress, kind of effect not given): approx. 15% at 30 uM (OX)
Cc1cc(OC2CCN(C(=O)c3ccccc3)CC2)c2ccccc2n1 [Compound 6, [4-(2-methyl-quinolin-4-yloxy)-piperidin-1-yl]-phenyl-methanone]	Not Active (OX)	–
Cc1cc(OC2CCN(Cc3ccccc3)CC2)c2cc(Br)ccc2n1 [Compound 7, 4-(1-benzyl-piperidin-4-yloxy)-6-bromo-2-methyl-quinoline]	–	IC50 [1]: 10 to 20 µM; effect on hASIC1a current evoked by pH 6.5 in oocytes (FIGS. 4A-4D) (OpusExpress): effective modulators; also recorded: dose-dependent reduction; IC50 [3]: 13.2 µM
COc1ccc2nc(C)cc(OC3CCN(Cc4ccccc4)CC3)c2c1 [Compound 8, 4-(1-benzyl-piperidin-4-yloxy)-6-methoxy-2-methyl-quinoline]	–	IC50 [1]: > 30 µM
Cc1cc(OC2CCN(Cc3ccccc3)CC2)c2ccc(Cl)cc2n1 [Compound 9, 4-(1-benzyl-piperidin-4-yloxy)-7-chloro-2-methyl-quinoline]	Not Active (OX)	–
FC(F)(F)c1cc(OC2CCN(Cc3ccccc3)CC2)c2cccc(C(F)(F)F)c2n1 [Compound 10, 4-(1-benzyl-piperidin-4-yloxy)-2,8-bis-trifluoromethyl-quinoline]	Not Active (OX)	–
Clc1ccc2c(OC3CCN(Cc4ccccc4)CC3)ccnc2c1 [Compound 11, 4-(1-benzyl-piperidin-4-yloxy)-7-chloro-quinoline]	Not Active (OX)	–
Cc1cc(OC2CCN(C(=O)OC(C)(C)C)CC2)c2ccccc2n1 [Compound 12, 4-(2-methyl-quinolin-4-yloxy)-piperidine-1-carboxylic acid tert butyl ester]	Not Active (OX)	–
FC(F)(F)c1cc(OC2CCN(Cc3ccccc3)CC2)c2ccccc2n1 [Compound 13, 4-(1-benzyl-piperidin-4-yloxy)-2-trifluoromethyl-quinoline]	–	IC50 [1]: 20 to 35 µM; IC50 [3]: 27.6 µM
Cc1cc(OC2CCN(Cc3ccccc3)CC2)c2cccc(C)c2n1 [Compound 14, 4-(1-benzyl-piperidin-4-yloxy)-2,8-dimethyl-quinoline]	Not Active (OX)	–
Cc1cc(OC2CCN(CC(C)(C)C)CC2)c2ccccc2n1 [Compound 15, 4-[1-(2,2-dimethyl-propyl)-piperidin-4-yloxy]-2-methyl-quinoline]	Not Active (OX)	–
Cc1cc(OC2CCN(Cc3ccccc3)CC2)c2cccc(F)c2n1 [Compound 24, 4-(1-benzyl-piperidin-4-yloxy)-8-fluoro-2-methyl-quinoline]	–	IC50 [3]: 1.25 µM
Cc1cc(OC2CCN(CC(C)C)CC2)c2ccccc2n1 [Compound 29, 4-(1-isobutyl-piperidin-4-yloxy)-2-methyl-quinoline]	–	IC50 [1]: > 30 µM
CCc1nc(N(C)C2CCN(Cc3ccccc3)CC2)c2ccccc2n1 [Compound 32, (1-benzyl-piperidin-4-yl)-(2-ethyl-quinazolin-4-yl)-methyl-amine]	–	IC50 [1]: 15 to 25 µM; effect on hASIC1a current evoked by pH 6.5 in oocytes (FIGS. 4A-4D) (OpusExpress): effective modulators; also recorded: dose-dependent reduction; IC50 [3]: 20.7 µM
Cc1ccc(-c2nc(OCCCCCl)c3cc([N+](=O)[O-])ccc3n2)cc1 [Compound 109, 4-(4-chloro-butoxy)-6-nitro-2-p-tolyl-quinazoline]	Not Active (OX)	–
COc1ccc(CN2CCC(Oc3cc(C)nc4ccccc34)CC2)cc1 [Compound 112, 4-[1-(4-Methoxy-benzyl)-piperidin-4-yloxy]-2-methyl-quinoline]	–	IC50 [1]: 15 to 25 µM
C=CCOC(=O)N1CCC(Oc2cc(C)nc3ccccc23)CC1 [Compound 113, 4-(2-methyl-quinolin-4-yloxy)-piperidine-1-carboxylic acid allyl ester]	–	IC50 [1]: > 30 µM; IC50 [3]: 17.1 µM

— US20070197509A1, “Compositions and methods for modulating gated ion channels” (PainCeptor Pharma Corporation, priority 2005, published 2007)
